Experimental data reported in patent publication US6410585B1, “Inhibitors of protein tyrosine phosphatase” (priority 1997, dated 2002).
“And” between values parts separate entries of the source, which are not always exact repeats. Equal values may be shown once.

How the values were obtained:
rat PTP1 = biological target: T1, rat PTP1 (Rattus norvegicus, UniProt P20417); test: PTP1 assay, pNPP hydrolysis (rate of change in A405); type: biochemical; details: for Ki: calculated from IC50-values obtained from a dose-response curve using the inhibition assay; for inhibition at 1 µM: Conc 1 uM; for inhibition at 1 µM / inhibition at 10 µM / inhibition at 100 µM: pNPP hydrolysis, Table 2, read-out: PTP1 Inhib PTP1N. % Inhib; for inhibition at 10 µM: Conc 10 uM; for inhibition at 100 µM: Conc 100 uM
T1 construct: a C-terminal truncation of rat PTP1 (amino acid residues 1-322); GST (N, cleaved yes); made in house; host or cells: E. coli strain TG-1 (pGEX-2T)
T1 sequence (P20417 1-322): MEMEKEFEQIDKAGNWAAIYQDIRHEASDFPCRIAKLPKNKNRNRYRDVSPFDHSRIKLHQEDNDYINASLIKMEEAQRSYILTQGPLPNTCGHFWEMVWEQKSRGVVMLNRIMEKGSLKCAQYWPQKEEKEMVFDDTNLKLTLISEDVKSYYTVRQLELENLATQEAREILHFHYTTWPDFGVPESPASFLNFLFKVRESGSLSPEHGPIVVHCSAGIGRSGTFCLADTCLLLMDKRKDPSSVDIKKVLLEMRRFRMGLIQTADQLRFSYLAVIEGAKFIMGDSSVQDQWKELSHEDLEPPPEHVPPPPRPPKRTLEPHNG
Summary of the method: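 Thrombin-cleaved rat PTP1 residues 1-322 (35 ng/ml) with 1 mM pNPP in 50 mM Hepes pH 7.2, NaCl, EDTA, DTT, BSA at room temperature. A405 rate followed 60 min. Compounds added as 10 mM solutions; percent inhibition relative to plate DMSO controls, 1 mM orthovanadate as full-inhibition control.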

human PTP1B = biological target: T2, human PTP1B (Homo sapiens, UniProt P18031); test: PTP1B assay, pNPP hydrolysis, assayed exactly as for PTP1; type: biochemical; details: for inhibition at 1 µM: Conc 1 uM; for inhibition at 1 µM / inhibition at 10 µM / inhibition at 100 µM: Table 2, read-out: PTP1B Inhib PTP1B. % Inhib; for PTP1B Inhib PTP1B. % Inhib: Table 2
T2 construct: human PTP1B (amino acid residues 1-321); made in house; host or cells: E. coli BL21(DE3)
T2 sequence (P18031 1-321): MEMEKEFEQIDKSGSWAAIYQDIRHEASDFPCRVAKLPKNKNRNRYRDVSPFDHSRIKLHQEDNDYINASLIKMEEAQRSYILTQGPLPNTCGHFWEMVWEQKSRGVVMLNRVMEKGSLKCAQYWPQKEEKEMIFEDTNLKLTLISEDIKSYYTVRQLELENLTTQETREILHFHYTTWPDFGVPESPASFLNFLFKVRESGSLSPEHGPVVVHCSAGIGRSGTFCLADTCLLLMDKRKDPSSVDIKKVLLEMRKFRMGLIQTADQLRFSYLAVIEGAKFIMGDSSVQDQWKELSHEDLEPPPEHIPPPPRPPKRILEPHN
Excerpt: The equivalent construct of human PTP1B (amino acid residues 1-321) (cloned from a human placental library), without the GST tag and thrombin cleavage site, was inserted into a pMB replicon and transformed into E. coli BL21(DE3), a strain containing a chromosomal copy of the gene for T7 RNA polymerase under control of a lacUV5 promoter. Expression of PTP1B was induced with isopropyl thiogalactose and the soluble protein was purified by ion exchange, hydrophobic interaction and gel exclusion chromatography for use in the assay to identify PTP inhibitors.
PTP1 activity is measured using either p-nitrophenol phosphate (pNPP) or a triphosphopeptide (that matches residues 1142 through 1153 of the β-subunit and the insulin receptor) as substrate in a 96-well microtiter plate format. An assay pH of 7.2 is used for standard assays (measured 405=9800 at pH 7.2).
Human PTP1B, which is highly homologous to rat PTP1, was assayed exactly as described above for PTP1.
Standard assays are conducted at room temperature in a total volume of 0.2 ml that contains Hepes buffer (50 mM, pH 7.2), NaCl (50 mM), EDTA (1 mM), DTT (1 mM), bovine serum albumin (1 mg/ml), pNPP (1 mM) and PTP1 (35 ng/ml). Compounds (2 μl of 10 mM solutions) are pipetted into wells of microtiter plates followed by 198 μl of premixed reaction mix (with PTP1 and pNPP added immediately before use). The rate of change in A405 is recorded for 60 min. Two wells on each plate contain DMSO controls and two wells contain sodium orthovanadate (1 mM) which inhibits PTP1-catalyzed hydrolysis of pNPP completely. Data are expressed as percent inhibition relative to the average of the DMSO controls measured on the same microtiter plate.

| Ki (rat PTP1) [µM] | melting point [°C] | inhibition at 1 µM (human PTP1B) [%] | inhibition at 10 µM (human PTP1B; Conc 10 uM) [%] | inhibition at 100 µM (human PTP1B; Conc 100 uM) [%] | inhibition at 1 µM (rat PTP1) [%] | inhibition at 10 µM (rat PTP1) [%] | inhibition at 100 µM (rat PTP1) [%] | PTP1B Inhib PTP1B. % Inhib (human PTP1B; Conc 10 uM) | PTP1B Inhib PTP1B. % Inhib (human PTP1B; Conc 100 uM) | Structure (SMILES) |
| --- | --- | --- | --- | --- | --- | --- | --- | --- | --- | --- |
| 20 | 223 to 225 | – | – | – | – | – | – | – | – | O=C(O)COc1ccc(C[C@H](NC(=O)c2ccccc2)C(=O)NCCCCc2ccccc2)cc1-c1nn[nH]n1 [Example 146, 2-[4-{(2S)-2-(benzoylamino)-3-oxo-3-[(4-phenylbutyl)amino]-propyl}-2-(2H-1,2,3,4-tetrazol-5-yl)phenoxy]acetic Acid] |
| – | 96 to 97 | – | – | – | – | – | – | – | – | CCCCCNC(=O)[C@H](Cc1ccc(OCC(=O)O)c(C(=O)O)c1)NC(=O)[C@@H](Cc1ccccc1)N1CCCC1=O [Example 143, 2-(carboxymethoxy)-5-[(2S)-3-oxo-2-{[(2R)-2-(2-oxo-1-pyrrolidinyl)-3-phenylpropanoyl]amino}-3-(pentylamino)propyl]benzoic Acid] |
| 30 | 146 to 148 | – | – | – | – | – | – | – | – | CCCCCNC(=O)[C@@H](Cc1ccc(OCC(=O)O)c(C(=O)O)c1)NC(=O)Cc1ccccc1OC [Example 153, 2-(carboxymethoxy)-5-[(2R)-2-{[2-(2-methoxyphenyl)acetyl]amino}-3-oxo-3-(pentylamino)propyl]benzoic Acid] |
| – | – | 7 | 48 | 91 | 9 | 42 | 88 | – | – | CCCCCNC(=O)C(Cc1ccc(OC(COO)COO)cc1)NC(=O)C(Cc1ccccc1)NC(=O)OC(C)(C)C (stereo not shown) |
| – | – | 14 | 63 | 97 | 8 | 55 | 96 | – | – | CCCCCNC(=O)C(Cc1ccc(OC(COO)C(=O)O)cc1)NC(=O)NC(Cc1ccc(OCc2ccccc2)cc1)C(=O)O (stereo not shown) |
| – | – | 9 | 42 | 90 | 10 | 44 | 91 | – | – | CCCCCNC(=O)C(Cc1ccc(OC(COO)COO)cc1)NC(=O)C(Cc1ccc(C(=O)c2ccccc2)cc1)NC(=O)OC(C)(C)C (stereo not shown) |
| – | – | 7 | 36 | 83 | 0 | 22 | 76 | – | – | CCCCCNC(=O)C(Cc1ccc(OC(COO)COO)cc1)NC(=O)C(C)NC(=O)OC(C)(C)C (stereo not shown) |
| 46 | 230 to 233 | – | – | – | – | – | – | – | – | O=C(O)COc1ccc(C[C@H](NC(=O)c2ccoc2)C(=O)NCCCCc2ccccc2)cc1-c1nn[nH]n1 [Example 147, 2-[4-{(2S)-2-(3-furoylamino)-3-oxo-3-[(4-phenylbutyl)amino]-propyl}-2-(2H-1,2,3,4-tetrazol-5-yl)phenoxy]acetic Acid] |
| – | – | – | – | – | 40 | 84 | 97 | 78% and 54% and 43% | 97% and 89% and 87% | CCCCCNC(=O)C(Cc1ccc(OCCOO)c(COO)c1)NC(=O)C(Cc1ccccc1)NC(=O)OC(C)(C)C (stereo not shown) [drawing 162] |

| Structure (SMILES) | Ki (rat PTP1) [µM] | melting point [°C] | inhibition at 1 µM (human PTP1B) [%] | inhibition at 10 µM (human PTP1B; Conc 10 uM) [%] | inhibition at 100 µM (human PTP1B; Conc 100 uM) [%] | inhibition at 1 µM (rat PTP1) [%] | inhibition at 10 µM (rat PTP1) [%] | inhibition at 100 µM (rat PTP1) [%] | PTP1B Inhib PTP1B. % Inhib (human PTP1B; Conc 10 uM) | PTP1B Inhib PTP1B. % Inhib (human PTP1B; Conc 100 uM) |
| --- | --- | --- | --- | --- | --- | --- | --- | --- | --- | --- |
| CC(C)(C)OC(=O)N[C@@H](Cc1ccccc1)C(=O)N[C@H](CO)Cc1ccc(OCC(=O)O)c(C(=O)O)c1 [Example 138, 5-[(2S)-2-({(2S)-2-[(tert-butoxycarbonyl)amino]-3-phenylpropanoyl}amino)-3-hydroxypropyl]-2-(carboxymethoxy)benzoic Acid] | – | 168.8 to 172.3 | – | – | – | – | – | – | – | – |
